Patent US5312816A, “Method of combatting osteoporosis in mammalian subjects, utilizing organic boron compounds” (priority 1993, dated 1994)
Values belong to the compound of their own block, whether it stands above or below them.

Assays:
[1] = system: Sprague Dawley male rats; assay: Chronic adjuvant arthritis screen, Mycobacterium butyricum; type: in vivo; details: Table 1; Indomethacin 10 mg/kg
[2] = system: Cf1 male mice; assay: Anti-inflammatory screen, Winter's test, 2% carrageenan hind foot; type: in vivo; details: Table 1; drugs 8 or 10 mg/kg I.P. 2X; Indomethacin 10 mg/kg
Experimental: Anti-inflammatory Screen- Cf1 - male mice-Winter's Test 2% carrageenan S.C. plantar surface of hind foot, drugs administered @8 or 10 mg/kg I.P. 2X
Winter, C.A., et al, Proc. Soc.

[3] = target: T1, Cathepsin (Rattus norvegicus, UniProt P24268); assay: Rat PMNs cathepsin activity; type: cell-based; details: pH 5; 5 × 10^-6 M, N=6; read-out: Rat PMNs Cathep.
T1 construct: azocasein assay pH 5.0
Text: (§1) 2. PMNs-polymorphonuclear neutrophils-rat peritoneal cavity 0.5% oyster glycogen.
(§2) 2. Acid Cathepsin D -azocasein-pH 5.0, hydrolytic azo-peptide produce 366 nm.

[4] = system: Acid phosphatase; assay: Rat PMNs acid phosphatase activity; type: cell-based; details: 5 × 10^-6 M, N=6; 5 µM
Text: as §1
(§3) 1. Acid phosphatase -beta glycerol-3-phosphate, pH 5.0, released IP 720 nm.

[5] = in vivo; details: mouse, Table 1, N=6
Experimental: Amine borane compounds (0 to 100 mg/kg) were administered to CF1 male mice as a single injection with six mice for each dosage. Mice were weighed daily and the number of deaths was recorded each day for a 14 day period. The LD50 value was determined by the procedure of S.C. Gad and C.S. Weil, "Statistics for Toxicologists" in Principles and Methods of Toxicology, A.W. Hayes, Ed., 2nd Edition, P 435-483 Raven Press, New York 1982.

[6] = system: cAMP; assay: PMNs cAMP levels, Gilman's radioimmune assay; type: cell-based, rat; details: 5 × 10^-6 M, N=6
Text: as §1
cAMP levels Gilman's radioimmune assay. ^3 H(G)Cyclic-3', 5'-adenosine monophosphate.

[7] = system: Cf1 male mice; assay: Writhing reflex, 0.6% acetic acid; type: in vivo; details: Table 1; Indomethacin 10 mg/kg
Experimental: Writhing reflex- Cf1 -male mice- 0.6% acetic acid I.P. drugs administered @20 mg/kg/ I.P. 20 min. later - the # of stretches/10 min.
Hendershot, L.C., et al, J.

[8] = system: Acid phosphatase; assay: Mouse hepatic lysosomal acid phosphatase activity; type: biochemical; details: 5 × 10^-6 M, N=6; 5 µM
Text: (§4) 1. Cf1 male mouse hepatic 10% homogenates in 0.25M sucrose+0.001MEDTA,pH 7.2.
(§5) Lysosomal Enzymes - free and total [triton X-100].
as §3
Acid phosphatase activity -

[9] = target: T2, Cathepsin D (Mus musculus, UniProt P18242); assay: Mouse hepatic lysosomal cathepsin D activity; type: biochemical; details: pH 5, read-out: Mouse Liver Cathep.
T2 construct: azocasein assay pH 5.0
Text: as §4, §5, §2
Cathepsin azo casein activity -

[10] = system: Aryl sulphatase; assay: Human osteoporosis fibroblasts aryl sulphatase activity; type: cell-based; details: Table X; human osteoporosis fibroblasts; read-out: Aryl Sulphatase IC50
Text: 3. Aryl sulphatase- p-nitrocatechol sulfate, pH
5. 8 p-nitro-catechol product 510 nm.

[11] = system: Prostaglandin cyclooxygenase; assay: Mouse macrophage prostaglandin cyclooxygenase activity; type: cell-based; details: Table VIII; mouse macrophages, 60 min incubation; read-out: Prostaglandin Cyclooxygenase IC50
Text: 3. Mouse macrophages J774A.1 BALB/c
Prostaglandin synthetase purified beef seminal vesicle ^3 H arachidonic acid (86.2 Ci/mmol), tlc separation.

[12] = system: Aryl sulphatase; assay: Mouse macrophage aryl sulphatase activity; type: cell-based; details: Table VII; mouse macrophage cultured cells, 60 min incubation; read-out: Aryl Sulphatase IC50
[13] = system: Sprague Dawley Rats; assay: Anti-inflammatory activity in Sprague Dawley rats; type: in vivo; details: Table IV; 8 mg/kg I.P.
[14] = system: Trypsin; assay: Human osteoporosis fibroblasts trypsin (BAEE) activity; type: cell-based; details: Table XI; human osteoporosis fibroblasts, 60 min incubation; read-out: Trypsin BAEE IC50
Text: 1. Trypsin- N-benzoyl-L-arginine ethyl ester pH 8.0, hydrolytic product 253 nm.

[15] = system: Trypsin; assay: Mouse macrophage trypsin (BAEE) activity; type: cell-based; details: Table VIII; mouse macrophages, 60 min incubation; read-out: Trypsin BAEE IC50
[16] = system: Acid phosphatase; assay: Human osteoporosis fibroblasts acid phosphatase activity; type: cell-based; details: Table X; human osteoporosis fibroblasts; read-out: Acid Phosphatase IC50
Text: as §3

[17] = system: Cf1 male mice; assay: Writhing reflex, 0.6% acetic acid; type: in vivo; details: Mus musculus, ip; Table IV; 8 mg/kg I.P.
[18] = system: Prostaglandin cyclooxygenase; assay: Human osteoporosis fibroblasts prostaglandin cyclooxygenase activity; type: cell-based; details: Table XI, 60 min incubation, read-out: Prostaglandin Cyclooxygense IC50
[19] = system: Elastase; assay: Mouse macrophage elastase activity; type: cell-based; details: Table VIII; mouse macrophages, 60 min incubation; read-out: Elastase IC50
[20] = target: T3, Cathepsin D (Homo sapiens, UniProt P07339); assay: Human osteoporosis fibroblasts cathepsin D (azo-casein) activity; type: cell-based; details: Table X; human osteoporosis fibroblasts, DMEM +10% FCS + P/S; read-out: Cathepsin D IC50
T3 construct: azocasein assay pH 5.0
Text: Osteoporosis Human Fibroblast-CRL-1140, Be SA1

[21] = system: Elastase; assay: Human osteoporosis fibroblasts elastase activity; type: cell-based; details: Table XI; human osteoporosis fibroblasts, 60 min incubation; read-out: Elastase IC50
Text: 2. Elastase- N-succinyl-L-alanyl-L-alanine-p-nitroanilide, pH 8.0, p-nitro anilide 410 nm.

[22] = target: T4, 5'-lipoxygenase (Mus musculus, UniProt P48999); assay: Mouse hepatic 5'-lipoxygenase activity; type: biochemical; details: Table VI; mouse hepatic, 60 min incubation; read-out: 5'-lipoxygenase IC50
T4 construct: Cf1 male mouse hepatic 10% homogenates; from tissue; host or cells: CF1 male mouse liver, 10% homogenate
T4 sequence (P48999 1-674): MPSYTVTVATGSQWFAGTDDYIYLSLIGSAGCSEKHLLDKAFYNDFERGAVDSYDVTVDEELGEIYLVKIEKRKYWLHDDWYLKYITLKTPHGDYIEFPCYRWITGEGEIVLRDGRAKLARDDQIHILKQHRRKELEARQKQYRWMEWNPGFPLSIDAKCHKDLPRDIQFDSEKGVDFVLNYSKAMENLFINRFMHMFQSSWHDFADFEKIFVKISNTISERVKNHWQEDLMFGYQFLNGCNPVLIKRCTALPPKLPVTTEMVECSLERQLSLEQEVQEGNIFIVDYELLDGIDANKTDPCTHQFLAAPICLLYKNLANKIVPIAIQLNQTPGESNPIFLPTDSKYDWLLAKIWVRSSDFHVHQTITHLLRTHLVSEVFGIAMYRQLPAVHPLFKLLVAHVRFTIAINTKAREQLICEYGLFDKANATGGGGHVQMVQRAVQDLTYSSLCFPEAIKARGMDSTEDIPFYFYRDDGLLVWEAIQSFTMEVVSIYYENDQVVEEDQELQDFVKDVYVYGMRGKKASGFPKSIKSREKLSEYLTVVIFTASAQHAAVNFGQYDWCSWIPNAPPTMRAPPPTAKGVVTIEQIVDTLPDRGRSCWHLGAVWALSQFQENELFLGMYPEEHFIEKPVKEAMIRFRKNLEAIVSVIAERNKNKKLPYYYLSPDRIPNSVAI
Text: as §4
5'-lipoxygenase Mylari, B.L., et al, J. Med.

[23] = system: Acid phosphatase; assay: Mouse macrophage acid phosphatase activity; type: cell-based; details: Table VII; mouse macrophage cultured cells, 60 min incubation; read-out: Acid Phosphatase IC50

T3 sequence (P07339 65-412): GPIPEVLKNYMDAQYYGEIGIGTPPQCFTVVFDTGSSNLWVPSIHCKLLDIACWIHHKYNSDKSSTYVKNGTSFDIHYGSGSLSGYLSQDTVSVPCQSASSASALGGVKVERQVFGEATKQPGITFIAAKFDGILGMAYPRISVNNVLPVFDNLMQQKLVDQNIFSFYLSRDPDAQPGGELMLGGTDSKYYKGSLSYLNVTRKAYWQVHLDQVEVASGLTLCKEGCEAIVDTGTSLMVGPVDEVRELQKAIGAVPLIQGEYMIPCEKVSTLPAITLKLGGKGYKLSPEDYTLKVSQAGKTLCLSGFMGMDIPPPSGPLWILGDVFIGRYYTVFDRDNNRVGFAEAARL
T1 sequence (P24268 65-407): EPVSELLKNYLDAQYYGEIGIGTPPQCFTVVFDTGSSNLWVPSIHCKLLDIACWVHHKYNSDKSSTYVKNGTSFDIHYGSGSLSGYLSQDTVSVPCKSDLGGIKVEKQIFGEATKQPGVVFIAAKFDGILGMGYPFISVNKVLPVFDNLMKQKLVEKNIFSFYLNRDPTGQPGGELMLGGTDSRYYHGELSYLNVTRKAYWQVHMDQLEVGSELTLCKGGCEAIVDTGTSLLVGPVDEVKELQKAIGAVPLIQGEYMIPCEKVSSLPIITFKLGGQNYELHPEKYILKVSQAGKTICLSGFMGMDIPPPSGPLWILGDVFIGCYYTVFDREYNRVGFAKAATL
T2 sequence (P18242 65-410): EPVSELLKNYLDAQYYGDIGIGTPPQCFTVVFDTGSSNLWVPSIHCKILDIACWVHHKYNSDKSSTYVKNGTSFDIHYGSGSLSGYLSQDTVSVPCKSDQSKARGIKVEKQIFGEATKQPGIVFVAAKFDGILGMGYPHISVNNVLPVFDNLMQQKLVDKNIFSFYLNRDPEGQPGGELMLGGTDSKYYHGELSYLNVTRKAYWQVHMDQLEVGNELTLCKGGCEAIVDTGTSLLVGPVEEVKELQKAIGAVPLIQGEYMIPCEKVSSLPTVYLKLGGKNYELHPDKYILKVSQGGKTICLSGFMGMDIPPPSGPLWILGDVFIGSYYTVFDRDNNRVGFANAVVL

Compound: COc1ccc2c(c1)c(CC(=O)O)c(C)n2C(=O)c1ccc(Cl)cc1 [Indomethacin, reference compound]
Anti-arthritic [1]: 27 % Control
Anti-inflammatory [2]: 22 % Control
activity at 5 µM [3]: 100%
Rat PMNs Acid Phoph. [4]: 100 + 2 % Control
LD50 at 336 h [5]: 28 mg/kg
PMNs cAMP [6]: 80 % Control
Writhing [7]: 43 % Control
Mouse Liver Acid Phosph. [8]: 86 + 4 % Control
activity at 5 µM [9]: 67%

IC50 [11]: 5.19 µM
IC50 [12]: 9.27 µM
IC50 [15]: 2.03 µM
IC50 [19]: 3.29 µM
IC50 [20]: 1.93 µM
IC50 [22]: 43.5 µM
IC50 [23]: 1.12 µM
Compound: CCNC(=O)[BH2-][NH+](C)C [Compound 9, Dimethylamine-N-ethylcarbamoylborane]
IC50 [10]: 7.63 µM
Anti-Inflammatory Activity Sprague Dawley Rats [13]: 41 % Control
IC50 [14]: 4.36 µM
IC50 [16]: 8.6 µM
response vs control in vivo at 8 mg/kg [17]: 26.9%
IC50 [18]: 8.05 µM
IC50 [21]: 0.98 µM
